PMC2650494 (Bioorganic & medicinal chemistry, 2008)
Non-standard residues stand in square brackets, D forms with d. Residues, ends and D or L forms follow the SMILES beside them. *: point of attachment. Phe(4-CH2SO3H) = N[C@@H](Cc1ccc(CS(=O)(=O)O)cc1)C(=O)O; X1 = [N-]=[N+]=NCCOCCOCC*

Legend:
gp120-CD4 = gp120-CD4 (Human immunodeficiency virus type 1 group M subtype B, UniProt P35961); format: binding, HIV-1; conditions: 1H NMR; 40:1 peptide:gp120-CD4

SMILES: CC[C@H](C)[C@H](NC(=O)[C@H](CC(=O)O)NC(=O)[C@H](Cc1ccc(CS(=O)(=O)O)cc1)NC(=O)[C@@H](NC(=O)[C@@H]1CCCN1C(=O)[C@H](CO)NC(=O)[C@H](CO)NC(=O)[C@@H](NC(=O)[C@H](CCC(N)=O)NC(=O)[C@H](Cc1ccc(CS(=O)(=O)O)cc1)NC(=O)[C@@H](N)CC(=O)O)C(C)C)[C@@H](C)CC)C(=O)N[C@@H](CC(N)=O)C(=O)N[C@@H](Cc1ccc(CS(=O)(=O)O)cc1)C(=O)N[C@@H](Cc1ccc(O)cc1)C(=O)N[C@H](C(=O)N[C@@H](CO)C(=O)N[C@@H](CCC(=O)O)C(=O)N1CCC[C@H]1C(=O)N[C@@H](COCCOCCOCCN=[N+]=[N-])C(=O)O)[C@@H](C)O [compound 11] (H-D[Phe(4-CH2SO3H)]QVSSPI[Phe(4-CH2SO3H)]DIN[Phe(4-CH2SO3H)]YTSEPS(X1)-OH; N-terminus and C-terminus assumed)
- Increase in line width between free and bound peptides, 10δ (gp120-CD4): 2.4 Hz
- Increase in line width between free and bound peptides, 14δ (gp120-CD4): 2.8 Hz
- Increase in line width between free and bound peptides, 15δ (gp120-CD4): 1.9 Hz
- Increase in line width between free and bound peptides, 15ε (gp120-CD4): 3.2 Hz
- solubility (Water solubility): > 30 mM
